Article PMC11012124, “Synthesis of Novel Triazine-Based Chalcones and 8,9-dihydro-7H-pyrimido[4,5-b][1,4]diazepines as Potential Leads in the Search of Anticancer, Antibacterial and Antifungal Agents” (International Journal of Molecular Sciences, 2024)

Experiments:
[1] = system: 60 cancer cell lines; experiment: NCI-60 one-dose screen (10 μM); format: cell-based; conditions: Homo sapiens; one dose of 10 μM, mean over 60 cancer cell lines; read-out: Mean Growth Percent (MGP)
Description: Additionally, the mean of the growth percentages (MGP) of each compound against all the 60 cancer cell lines is also reported, which is used as one of the selection criteria to continue with tests at five concentration doses.

[2] = system: CCRF-CEM; experiment: cells; conditions: Homo sapiens, 48 h; for CC50: read-out: LC50
[3] = system: HL-60(TB); experiment: cells; conditions: Homo sapiens, HL-60, 48 h; for CC50: read-out: LC50
[4] = system: RPMI-8226; experiment: cells; conditions: Homo sapiens, RPMI-8226, 48 h; for CC50: read-out: LC50
[5] = system: A549/ATCC; experiment: cells; conditions: Homo sapiens, A549, 48 h; for CC50: read-out: LC50
[6] = system: EKVX; experiment: cells; conditions: Homo sapiens, 48 h; for CC50: read-out: LC50
[7] = system: HOP-62; experiment: cells; conditions: Homo sapiens, HOP-62, 48 h; for CC50: read-out: LC50
[8] = system: NCI-H226; experiment: cells; conditions: Homo sapiens, NCI-H226, 48 h; for CC50: read-out: LC50
[9] = system: NCI-H23; experiment: cells; conditions: Homo sapiens, NCI-H23, 48 h; for CC50: read-out: LC50
[10] = system: NCI-H322M; experiment: cells; conditions: Homo sapiens, 48 h; for CC50: read-out: LC50
[11] = system: NCI-H460; experiment: cells; conditions: Homo sapiens, NCI-H460, 48 h; for CC50: read-out: LC50
[12] = system: COLO 205; experiment: cells; conditions: Homo sapiens, COLO 205, 48 h; for CC50: read-out: LC50
[13] = system: HCT-116; experiment: cells; conditions: Homo sapiens, HCT-116, 48 h; for CC50: read-out: LC50
[14] = system: HCT-15; experiment: cells; conditions: Homo sapiens, HCT-15, 48 h; for CC50: read-out: LC50
[15] = system: KM12; experiment: cells; conditions: Homo sapiens, KM12, 48 h; for CC50: read-out: LC50
[16] = system: SW-620; experiment: cells; conditions: Homo sapiens, SW-620, 48 h; for CC50: read-out: LC50
[17] = system: SF-268; experiment: cells; conditions: Homo sapiens, SF-268, 48 h; for CC50: read-out: LC50
[18] = system: SF-295; experiment: cells; conditions: Homo sapiens, SF-295, 48 h; for CC50: read-out: LC50
[19] = system: SNB-19; experiment: cells; conditions: Homo sapiens, SNB-19, 48 h; for CC50: read-out: LC50
[20] = system: SNB-75; experiment: cells; conditions: Homo sapiens, SNB-75, 48 h; for CC50: read-out: LC50
[21] = system: U251; experiment: cells; conditions: Homo sapiens, U-251, 48 h; for GI50: U251, 48 h; for CC50: read-out: LC50
[22] = system: MALME-3M; experiment: cells; conditions: Homo sapiens, 48 h; for CC50: read-out: LC50
[23] = system: M14; experiment: cells; conditions: Homo sapiens, M14, 48 h; for CC50: read-out: LC50
[24] = system: MDA-MB-435; experiment: cells; conditions: Homo sapiens, MDA-MB-435, 48 h; for CC50: read-out: LC50
[25] = system: SK-MEL-2; experiment: cells; conditions: Homo sapiens, SK-MEL-2, 48 h; for CC50: read-out: LC50
[26] = system: SK-MEL-28; experiment: cells; conditions: Homo sapiens, SK-MEL-28, 48 h; for CC50: read-out: LC50
[27] = system: SK-MEL-5; experiment: cells; conditions: Homo sapiens, SK-MEL-5, 48 h; for CC50: read-out: LC50
[28] = system: UACC-257; experiment: cells; conditions: Homo sapiens, UACC-257, 48 h; for CC50: read-out: LC50
[29] = system: IGROV1; experiment: cells; conditions: Homo sapiens, IGROV-1, 48 h; for CC50: read-out: LC50
[30] = system: OVCAR-4; experiment: cells; conditions: Homo sapiens, OVCAR-4, 48 h; for CC50: read-out: LC50
[31] = system: OVCAR-5; experiment: cells; conditions: Homo sapiens, OVCAR-5, 48 h; for CC50: read-out: LC50
[32] = system: OVCAR-8; experiment: cells; conditions: Homo sapiens, OVCAR-8, 48 h; for CC50: read-out: LC50
[33] = system: 786-0; experiment: cells; conditions: Homo sapiens, 786-0, 48 h; for CC50: read-out: LC50
[34] = system: ACHN; experiment: cells; conditions: Homo sapiens, 48 h; for CC50: read-out: LC50
[35] = system: SN12C; experiment: cells; conditions: Homo sapiens, 48 h; for CC50: read-out: LC50
[36] = system: UO-31; experiment: cells; conditions: Homo sapiens, UO-31, 48 h; for CC50: read-out: LC50
[37] = system: BT-549; experiment: cells; conditions: Homo sapiens, BT-549, 48 h; for CC50: read-out: LC50

COc1cc(/C=C/C(=O)c2ccc(S(=O)(=O)NCCNc3nc(N(C)C)nc(N4CCOCC4)n3)cc2)cc(OC)c1OC [23d]
activity at 10 µM [1]: -32.7%
GI50 [2]: 2.07 µM
CC50 [2]: > 100 µM
GI50 [3]: 1.97 µM
CC50 [3]: > 100 µM
GI50 [4]: 1.39 µM
CC50 [4]: > 100 µM
GI50 [5]: 3.55 µM
CC50 [5]: 43.9 µM
GI50 [6]: 3.74 µM
CC50 [6]: 82.3 µM
GI50 [7]: 2.66 µM
CC50 [7]: 32.1 µM
GI50 [8]: 11.4 µM
CC50 [8]: 72.4 µM
GI50 [9]: 3.09 µM
CC50 [9]: 40.3 µM
GI50 [10]: 7.82 µM
CC50 [10]: 48.5 µM
GI50 [11]: 3.17 µM
CC50 [11]: 59 µM
GI50 [12]: 2.14 µM
CC50 [12]: 16.6 µM
GI50 [13]: 1.56 µM
CC50 [13]: 5.92 µM
GI50 [14]: 1.82 µM
CC50 [14]: 8.38 µM
GI50 [15]: 1.7 µM
CC50 [15]: 6.52 µM
GI50 [16]: 1.9 µM
CC50 [16]: 7.42 µM
GI50 [17]: 3.16 µM
CC50 [17]: 77.2 µM
GI50 [18]: 3.04 µM
CC50 [18]: 57.8 µM
GI50 [19]: 4.28 µM
CC50 [19]: 41.7 µM
GI50 [20]: 1.56 µM
CC50 [20]: 41.6 µM
GI50 [21]: 1.54 µM
CC50 [21]: 5.54 µM
GI50 [22]: 1.97 µM
CC50 [22]: 9.42 µM
GI50 [23]: 2.18 µM
CC50 [23]: 26.9 µM
GI50 [24]: 1.9 µM
CC50 [24]: 8.46 µM
GI50 [25]: 10.7 µM
CC50 [25]: 48.9 µM
GI50 [26]: 2.12 µM
CC50 [26]: 13 µM
GI50 [27]: 7.9 µM
CC50 [27]: 46.6 µM
GI50 [28]: 5.86 µM
CC50 [28]: 43 µM
GI50 [29]: 2.6 µM
CC50 [29]: 50.1 µM
GI50 [30]: 2.21 µM
CC50 [30]: 24.8 µM
GI50 [31]: 2.83 µM
CC50 [31]: 33.7 µM
GI50 [32]: 2.3 µM
CC50 [32]: 36.5 µM
GI50 [33]: 1.89 µM
CC50 [33]: 7.18 µM
GI50 [34]: 1.78 µM
CC50 [34]: 6.75 µM
GI50 [35]: 2.72 µM
CC50 [35]: 38.1 µM
GI50 [36]: 1.57 µM
CC50 [36]: 6.32 µM
GI50 [37]: 2.01 µM
CC50 [37]: 6.91 µM

CN(C)c1nc(NCCNS(=O)(=O)c2ccc(C(=O)/C=C/c3ccccc3)cc2)nc(N2CCOCC2)n1 [23a]
activity at 10 µM [1]: 61.9%
GI50 [2]: 4.41 µM
CC50 [2]: > 100 µM
GI50 [3]: 6.18 µM
CC50 [3]: > 100 µM
GI50 [4]: 3.25 µM
CC50 [4]: > 100 µM
GI50 [5]: 13.6 µM
CC50 [5]: 59.1 µM
GI50 [6]: 14.7 µM
CC50 [6]: 63.8 µM
GI50 [7]: 16.4 µM
CC50 [7]: 62.7 µM
GI50 [8]: 13.5 µM
CC50 [8]: 74.2 µM
GI50 [9]: 16 µM
CC50 [9]: 58 µM
GI50 [10]: 14.8 µM
CC50 [10]: 56.5 µM
GI50 [11]: 18.2 µM
CC50 [11]: 80.7 µM
GI50 [12]: 20.2 µM
CC50 [12]: 80.7 µM
GI50 [13]: 1.82 µM
CC50 [13]: 7.1 µM
GI50 [14]: 5.21 µM
CC50 [14]: 61.7 µM
GI50 [15]: 2 µM
CC50 [15]: 8.93 µM
GI50 [16]: 3.41 µM
CC50 [16]: 42.7 µM
GI50 [17]: 13.7 µM
CC50 [17]: 70.1 µM
GI50 [18]: 15.6 µM
CC50 [18]: 59.5 µM
GI50 [19]: 14.8 µM
CC50 [19]: 57.3 µM
GI50 [20]: 5.49 µM
CC50 [20]: 44.6 µM
GI50 [21]: 11.7 µM
CC50 [21]: 57.2 µM
GI50 [22]: 15.2 µM
CC50 [22]: 56.5 µM
GI50 [23]: 14.6 µM
CC50 [23]: 68.5 µM
GI50 [24]: 14.7 µM
CC50 [24]: 54.4 µM
GI50 [25]: 15.3 µM
CC50 [25]: 56.9 µM
GI50 [26]: 17.2 µM
CC50 [26]: 63.9 µM
GI50 [27]: 15.9 µM
CC50 [27]: 54.3 µM
GI50 [28]: 17.9 µM
CC50 [28]: 58.3 µM
GI50 [29]: 15.3 µM
CC50 [29]: 66.4 µM
GI50 [30]: 14.3 µM
CC50 [30]: 54 µM
GI50 [31]: 12.1 µM
CC50 [31]: 55.9 µM
GI50 [32]: 16.4 µM
CC50 [32]: 61.7 µM
GI50 [33]: 14.8 µM
CC50 [33]: 57.1 µM
GI50 [34]: 18.2 µM
CC50 [34]: 72.2 µM
GI50 [35]: 14.6 µM
CC50 [35]: 56.1 µM
GI50 [36]: 11.2 µM
CC50 [36]: 55.7 µM
GI50 [37]: 11.2 µM
CC50 [37]: 50 µM
